Experimental data reported in patent US20240083874A1, “TARGETING PLECKSTRIN-2 FOR TREATING CANCER AND OTHER DISEASES AND DISORDERS” (Northwestern University, priority 2021, published 2024).
Entries after “also recorded” stand apart in the source; their conditions may differ.

Test system: mouse fetal liver erythroblasts
Experiment: mouse fetal liver erythroblast proliferation in erythropoietin containing medium
Format: cell-based
Conditions: approximately 10 uM NUP-52A added to the culture; proliferation monitored daily for two days; comparable to JAK2 inhibitor Ruxolitinib (FIG. 4)
Procedure: FIG. 4. Effect of NUP-52A on cell proliferation, differentiation, and enucleation in comparison to ruxolitinib. Ter119 negative mouse fetal liver erythroblasts were purified and cultured in erythropoietin containing medium. NUP-52A (Panels A, B, and C) or Ruxolitinib (Panels D, E, and F) with indicated concentrations were added to the culture media at the start of culture. The cells were cultured for two days. Cell proliferation, differentiation, and enucleation were analyzed using flow cytometry on day 2.
To screen these compounds, an assay using a well-developed Plek2 functional screening system (28) was performed. In this system, mouse fetal liver erythroid progenitors are purified and cultured in erythropoietin containing medium. These cells undergo rapid proliferation closely mimicking accelerated erythropoiesis in MPNs. In these cells, Plek2 is also highly expressed during the culture. This system then may be utilized to test Plek2 inhibitor compounds.
We used mouse fetal liver erythroblasts to test the compound. Approximately 10 uM NUP-52A was added in the fetal liver erythroblast culture and the proliferation of the cells is monitored daily for two days. […] (See FIG. 4).

SMILES: Clc1ccc2c(N3CCNCC3)cc(-c3c[nH]c4ccccc34)nc2c1 [NUP-52A, 7-chloro-4-(piperazin-1-yl)-2-(1H-indol-3-yl)quinoline]
- effect on the proliferation of erythroblasts: potent effects; also recorded: strong inhibitory effects
